Test results taken from the supplement of paper PMC10307832.

Assays:
Assay in all cases: relative viability (nuclei count vs DMSO), 5 days (fraction); higher = more cells survive
[1] = compound: C[C@@H](N)c1ccc(C(=O)Nc2ccnc3[nH]ccc23)cc1 + O=C(c1cc(Cc2n[nH]c(=O)c3ccccc23)ccc1F)N1CCN(C(=O)C2CC2)CC1 [Olaparib] (partner 8 µM)
How it was run: (§1)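 Five library-drug doses in √10 steps were combined with a fixed anchor-drug dose, or a single drug was given alone, by pin tool to lung cancer cell lines in 1536-well plates the day after seeding. Nuclei were stained and counted after 5 days. Relative viability is the nuclei count in treated wells over that in vehicle wells, taken as the median of duplicate plates.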

Tanzisertib + Pictilisib = compound: O[C@H]1CC[C@H](Nc2ncc3nc(Nc4c(F)cc(F)cc4F)n([C@H]4CCOC4)c3n2)CC1 [Tanzisertib] + CS(=O)(=O)N1CCN(Cc2cc3nc(-c4cccc5[nH]ncc45)nc(N4CCOCC4)c3s2)CC1 [Pictilisib] (partner 1 µM)
How it was run: as §1

Tanzisertib + Olaparib = compound: O[C@H]1CC[C@H](Nc2ncc3nc(Nc4c(F)cc(F)cc4F)n([C@H]4CCOC4)c3n2)CC1 [Tanzisertib] + O=C(c1cc(Cc2n[nH]c(=O)c3ccccc23)ccc1F)N1CCN(C(=O)C2CC2)CC1 [Olaparib] (partner 8 µM)
How it was run: as §1

[2] = compound: C[C@@H](N)c1ccc(C(=O)Nc2ccnc3[nH]ccc23)cc1 + COc1cccc2cc(-c3nc([C@H]4CC[C@H](C(=O)O)CC4)n4ncnc(N)c34)[nH]c12 [OSI-027] (partner 0.5 µM)
How it was run: as §1

Cell Line	relative viability ([1]; first compound 0.04 µM)	relative viability ([1]; first compound 0.1265 µM)	relative viability ([1]; first compound 0.4 µM)	relative viability ([1]; first compound 1.265 µM)	relative viability ([1]; first compound 4 µM)	relative viability (Tanzisertib + Pictilisib; first compound 0.08 µM)	relative viability (Tanzisertib + Pictilisib; first compound 0.253 µM)	relative viability (Tanzisertib + Pictilisib; first compound 0.8 µM)	relative viability (Tanzisertib + Pictilisib; first compound 2.53 µM)	relative viability (Tanzisertib + Pictilisib; first compound 8 µM)	relative viability (Tanzisertib + Olaparib; first compound 0.08 µM)	relative viability (Tanzisertib + Olaparib; first compound 0.253 µM)	relative viability (Tanzisertib + Olaparib; first compound 0.8 µM)	relative viability (Tanzisertib + Olaparib; first compound 2.53 µM)	relative viability (Tanzisertib + Olaparib; first compound 8 µM)	relative viability ([2]; first compound 0.04 µM)	relative viability ([2]; first compound 0.1265 µM)	relative viability ([2]; first compound 0.4 µM)	relative viability ([2]; first compound 1.265 µM)	relative viability ([2]; first compound 4 µM)
NCI-H1355	0.723	0.75	0.877	0.709	0.696	0.455	0.417	0.46	0.461	0.306	0.772	0.735	0.756	0.757	0.796	0.459	0.415	0.432	0.343	0.379
EKVX	0.993	1.14	1.03	0.923	0.727	0.425	0.392	0.405	0.42	0.329	0.888	0.876	0.862	0.872	0.792	0.609	0.798	0.832	0.761	0.727
NCI-H441	0.544	0.505	0.539	0.562	0.35	0.494	0.529	0.525	0.476	0.463	0.642	0.611	0.545	0.496	0.535	0.631	0.807	0.62		0.701
NCI-H1975	0.771	0.757	0.78	0.67	0.523	0.297	0.266	0.304	0.295	0.309	0.898	0.836	0.807	0.818	0.752	0.799	0.876	0.666	0.673	0.533
HCC-78	1.05	0.964	1.16	1.4	1.08	0.215	0.175	0.23	0.219	0.192	0.922	0.73	0.854	0.852	0.622	0.54	0.389	0.476	0.388	0.544
NCI-H2085	0.762	0.726	0.667	0.706	0.619	0.474	0.454	0.465	0.478	0.435		0.763	0.745	0.803	0.76	0.744	0.816	0.77	0.397	0.717
H3255	0.533	0.607	0.606	0.558	0.48	0.548	0.452	0.487	0.457	0.253	0.611	0.521	0.661	0.62	0.481	0.624	0.727	0.745	0.725	0.783
NCI-H2087	0.733	0.598	0.605	0.625	0.576	1.17	0.838	0.886	0.753	0.743	0.552	0.576	0.501	0.52	0.588	1.02	0.721	0.924		0.613
LC-2-ad	0.744	0.693	0.646	0.647	0.478	0.506	0.426	0.458	0.0954	0.359	0.68	0.743	0.706	0.714	0.794	0.763	0.893	0.858		0.625
PC-3 [JPC-3]	0.968	1.22	1.13	1.23	1.01	0.741	0.823	0.688	0.673	0.577	1.18	1.21	1.19	1.18	1.04	0.789	0.76	0.783	0.775	0.792
EBC-1	0.847	0.713	0.678	0.683	0.583	0.468	0.454	0.405	0.338	0.275	0.747	0.675	0.675	0.603	0.536					
HCC-15	0.744	0.731	0.726	0.693	0.743	0.836	0.651	0.786	0.698	0.494	0.779	0.742	0.791	0.713	0.727	0.695	0.632	0.681		0.619
NCI-H1563						0.661	0.638	0.572	0.601	0.607						0.796	0.767	0.679	0.816	0.846
COR-L 105	0.605	0.636	0.763	0.717	0.564	0.428	0.387	0.404	0.442	0.263	0.729	0.631	0.792	0.726	0.816	0.719	0.943	0.852	0.517	0.563
NCI-H520	0.359	0.332	0.29	0.373	0.318	0.372	0.322	0.29	0.287	0.297	0.395	0.331	0.39	0.328	0.433	0.287	0.333	0.329	0.334	0.335
LU99A		0.231	0.253	0.275	0.281	0.322	0.303	0.319	0.358	0.321	0.268	0.253	0.246	0.276	0.255		0.328	0.292	0.277	0.316
NCI-H1666	0.786	0.764	0.856	0.825	0.906	0.494	0.588	0.414	0.546	0.439	0.754	0.801	0.747	0.729	0.768	0.917	0.979	0.935	1.14	1.06
NCI-H2170	0.618	0.584	0.614	0.746	0.543	0.357	0.307	0.313	0.307	0.27	0.669	0.569	0.601	0.604	0.53	0.775	0.739	0.747	0.515	0.718

Cell Line	relative viability ([1]; first compound 0.04 µM)	relative viability ([1]; first compound 0.1265 µM)	relative viability ([1]; first compound 0.4 µM)	relative viability ([1]; first compound 1.265 µM)	relative viability ([1]; first compound 4 µM)	relative viability (Tanzisertib + Pictilisib; first compound 0.08 µM)	relative viability (Tanzisertib + Pictilisib; first compound 0.253 µM)	relative viability (Tanzisertib + Pictilisib; first compound 0.8 µM)	relative viability (Tanzisertib + Pictilisib; first compound 2.53 µM)	relative viability (Tanzisertib + Pictilisib; first compound 8 µM)	relative viability (Tanzisertib + Olaparib; first compound 0.08 µM)	relative viability (Tanzisertib + Olaparib; first compound 0.253 µM)	relative viability (Tanzisertib + Olaparib; first compound 0.8 µM)	relative viability (Tanzisertib + Olaparib; first compound 2.53 µM)	relative viability (Tanzisertib + Olaparib; first compound 8 µM)	relative viability ([2]; first compound 0.04 µM)	relative viability ([2]; first compound 0.1265 µM)	relative viability ([2]; first compound 0.4 µM)	relative viability ([2]; first compound 1.265 µM)	relative viability ([2]; first compound 4 µM)
NCI-H522	0.591	0.684	0.657	0.658	0.629						0.629	0.809	0.726	0.647	0.634	0.657	0.67	0.78	0.764	0.737
LCLC-97TM1	0.416	0.429	0.342	0.526	0.342		0.16	0.176	0.159	0.164	0.487	0.51	0.416	0.301	0.47	0.69	0.587	0.625	0.384	0.701
NCI-H1299	0.91	0.987	0.933	0.878	0.767	0.762	0.713	0.699	0.893	0.729	0.997	0.972	0.96	1.1	1.03					
NCI-H3122	0.625	0.613	0.638	0.702	0.622	0.655	0.591	0.587	0.572	0.743	0.708	0.587	0.634	0.583	0.62	1.2	1.14	1.06		1.1
NCI-H1395	0.473	0.511	0.406		0.393	0.592	0.735	0.568	0.589	0.533	0.462	0.445	0.455	0.42	0.45	0.637	0.739	0.685	0.389	0.588
NCI-H2009	0.657	0.666	0.611	0.595	0.547	0.965	0.794	0.972	0.882	0.563	0.634	0.734	0.743	0.73	0.752	0.675	0.77	0.655	0.714	0.624
NCI-H1651	0.195	0.174	0.179	0.24	0.221	0.562	0.579	0.581	0.6	0.583	0.206	0.182	0.196	0.2	0.175	0.901	0.817	0.888	1.05	0.802
HARA	1.02	0.907	1.32	0.966	0.819	0.475	0.337	0.321	0.436	0.412	0.876	0.844	0.715	1.28	0.849		0.437	0.638		0.481
NCI-H1944	0.453	0.396	0.434	0.432	0.401	0.364	0.344	0.351	0.331	0.336	0.462	0.412	0.377	0.44	0.385	0.409	0.368	0.397	0.26	0.384
NCI-H2347	0.53	0.579	0.534	0.566	0.461	0.781	0.444	0.501	0.478	0.715	0.628	0.626	0.593	0.677	0.766	0.502	0.494	0.414		0.631
Calu-6	0.602	0.592	0.547	0.533	0.45	0.901	1.01	0.865	1.03	0.976	0.583	0.566	0.563	0.597	0.509					
NCI-H1703	0.374	0.476	0.348		0.463	0.272	0.245	0.258	0.224	0.218	0.457	0.453	0.388	0.35	0.392					
NCI-H2342	0.454	0.469	0.405	0.481	0.388						0.572	0.423	0.483	0.485	0.439	0.711	0.694	0.763	0.655	0.675
NCI-H1623																0.559	0.418	0.502	0.469	0.503
SW 900	1.03	0.918	1.21	0.883	1.08							0.82	0.963	0.782	0.722	0.657	0.608	0.596	0.688	0.824
NCI-H1648	1.01	1.02	1.93	1.71	1.29						0.662	1.22	0.797	0.817	0.765	0.265	0.301	0.267	0.289	0.346
IA-LM	0.824	0.996	0.914	1.11	0.914	0.375	0.335	0.339	0.255	0.362	0.738	0.765	0.754	0.859	0.789					
A549	0.303	0.251	0.575	0.0626	0.465	0.564	0.496	0.588	0.534	0.428	0.297	0.397	0.344	0.35	0.0802					
